Laboratory results taken from PubChem BioAssay (NCI).
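Interpolation was linear, between the two tested concentrations surrounding the appropriate level; five concentrations were tested over 48 hours in 96-well plates. Here, GI50 denotes the concentration required for 50% inhibition of growth. The concentration for full growth arrest is given as TGI.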

How the values were obtained:
Test in all cases: DTP human tumour cell line panel, 48 h
HT29 colon = system: HT29 colon
MALME-3M melanoma = system: MALME-3M melanoma
HCC-2998 colon = system: HCC-2998 colon
OVCAR-4 ovarian = system: OVCAR-4 ovarian
HOP-62 NSCLC = system: HOP-62 NSCLC
HCT-15 colon = system: HCT-15 colon
A549 NSCLC = system: A549 NSCLC
OVCAR-5 ovarian = system: OVCAR-5 ovarian
SR leukemia = system: SR leukemia
LOX IMVI melanoma = system: LOX IMVI melanoma

SMILES | TGI (HT29 colon) [µM] | TGI (MALME-3M melanoma) [µM] | TGI (HCC-2998 colon) [µM] | TGI (OVCAR-4 ovarian) [µM] | TGI (HOP-62 NSCLC) [µM] | TGI (HCT-15 colon) [µM] | TGI (A549 NSCLC) [µM] | TGI (OVCAR-5 ovarian) [µM] | TGI (SR leukemia) [µM] | GI50 (HT29 colon) [µM] | GI50 (LOX IMVI melanoma) [µM] | TGI (LOX IMVI melanoma) [µM] | GI50 (HCC-2998 colon) [µM] | GI50 (OVCAR-4 ovarian) [µM] | GI50 (HOP-62 NSCLC) [µM] | GI50 (HCT-15 colon) [µM] | GI50 (A549 NSCLC) [µM] | GI50 (OVCAR-5 ovarian) [µM] | GI50 (SR leukemia) [µM] | GI50 (MALME-3M melanoma) [µM]
CS(=O)(=O)OCCN1CCN(C(=O)c2ccc(Cl)c3c(Nc4ccc(S(=O)(=O)N=C(N)N)cc4)c4ccccc4nc23)CC1 | > 100 | > 100 | > 100 | > 100 | > 100 | > 100 | > 100 | > 100 | > 100 |  |  |  |  |  |  |  |  |  |  | 
O=c1[nH]c(=S)[nH]c(O)c1/C=C1\C=Nc2ccccc21 | 10.6 |  | 24.8 | > 100 | 38.4 | 8.07 | > 100 | > 100 | 4.52 | 3.37 | 2.46 | 11.1 | 11.4 | 21.2 | 3.66 | 2.78 | 37.2 | 25.7 | 1.72 | 
CCN(CC)CCCC(Nc1c2ccc(Cl)cc2nc2ccc(OC)cc12)c1ccc(Cl)cc1 (centres undefined) | 1.75 | 3.55 | 3.01 | 3.17 | 3.14 | 1.59 | 3.05 | 3.36 | 0.512 | 0.45 |  |  | 1.47 | 1.13 | 1.61 | 0.404 | 1.52 | 1.74 | 0.217 | 1.88
COC(=O)[C@]12CC[C@@H](C)[C@H](C)[C@@H]1C1=CC[C@@H]3[C@@]4(C)C(C=O)=C[C@@](C)(COS(C)(=O)=O)C4=CC[C@@]3(C)[C@]1(C)CC2 | 0.37 | 0.34 | 0.466 |  | 1.17 |  | 1.92 | 0.57 |  | 0.144 | 0.169 | 0.316 | 0.204 |  | 0.303 |  | 0.468 | 0.215 |  | 0.173
CN1CCCc2nc3ccccc3n2C1 | > 100 | > 100 |  | > 100 | > 100 | > 100 | > 100 | > 100 |  |  |  | > 100 |  |  |  |  |  |  |  | 
O=C(Nc1ccccc1C(=O)NC(=O)c1ccccc1NC(=O)c1ccccc1)c1ccccc1 | 12.7 | 12.1 |  | 18 | 36.4 | 34.3 | 23.1 | 13.5 | 8.52 |  |  | 13.9 |  |  |  |  |  |  |  | 
N#Cc1ccccc1Sc1ccccc1N | > 100 | > 100 |  | > 100 | > 100 |  | > 100 | > 100 | > 100 |  |  | > 100 |  |  |  |  |  |  |  | 
CCCC(O)[C@@]1(CC)CC(C)C(O)(C2(C)C[C@H](C)[C@@H](C(CC)C(=O)C(C)[C@@H](O)[C@H](C)C3OC(O)(C(CC)C(=O)O)[C@@H](C)C(O)C3CC)O2)O1 (some centres undefined) | 2.09 | 0.392 | 1.49 | 6.94 | 2.3 | 7.03 | 5.71 | 5.35 |  |  |  | 1.57 |  |  |  |  |  |  |  | 
CCCCCCCCCC1CC(=O)OC23CCCC(=O)C12O3 (centres undefined) | > 100 | > 100 | > 100 | > 100 | > 100 | > 100 | > 100 | > 100 |  |  |  | > 100 |  |  |  |  |  |  |  | 
Cc1ccc(-n2nc(C(OC3OC(CO)C(O)C(O)C3O)C(O)CO)c3nc4cc(C)c(C)cc4nc32)cc1 (centres undefined) | > 100 | > 100 | > 100 | > 100 | > 100 | > 100 |  | > 100 |  |  |  | > 100 |  |  |  |  |  |  |  | 
COc1cc([C@@H]2c3cc4c(cc3[C@H](SC(=N)N)[C@H]3COC(=O)[C@H]23)OCO4)cc(OC)c1OC |  |  | > 100 | > 100 | > 100 | > 100 | > 100 | > 100 | > 100 | 0.217 | 0.0799 | > 100 | 0.338 | 0.683 | 0.419 | 0.321 | 0.305 | 0.638 | 0.0897 | 
C#COc1cccc(Nc2ncnc3cc(NC(=O)[C@@H](C)Cl)ccc23)c1 | > 62.5 | > 62.5 | > 62.5 |  | > 62.5 | > 62.5 | > 62.5 | > 62.5 | > 62.5 | 2.41 | 4.88 | > 62.5 | 13.9 |  | 8.18 | 3.98 | 9.86 | 18 | 3.08 | 20.1
COS(=O)c1cc(Cl)cc(Cl)c1OC(=O)CSSCC(=O)Oc1c(Cl)cc(Cl)cc1S(=O)OC (centres undefined) | 96.9 | 42.4 | 40.3 | 51.6 |  | 45.1 | 47.2 | 41.2 |  |  |  | 43.8 |  |  |  |  |  |  |  | 
O=C1C=CC2(CCC23C=CC(=O)O3)O1 (centres undefined) | > 100 | > 100 | > 100 | > 100 | > 100 | > 100 | > 100 | > 100 |  |  |  | > 100 |  |  |  |  |  |  |  | 
N#CC(C(=O)Nc1ccccc1)C1=C(Cl)C(=O)c2ccccc2C1=O (centres undefined) | 67.5 | 26.7 | 45.9 | 31 | 33.6 | 32.6 | 43.4 | 32.2 |  |  |  | 29.8 |  |  |  |  |  |  |  | 
Nc1nc(Cl)c2ncn(Cc3ccc(C45CC6CC(CC(C6)C4)C5)c(OCc4cc(F)c(F)cc4F)c3)c2n1 | 22.7 | 8.62 | 5.58 | > 100 | 10.8 | 14.1 | 5.89 | 33.9 |  | 3.45 | 1.88 | 8.64 | 2.48 | 6.08 | 3.23 | 3.57 | 1.94 | 13.4 |  | 2.47
CCCCCCCCCCCCCCCC(=O)OCC1OC(n2cc(F)c(=O)[nH]c2=O)C(NC(=O)OCc2ccccc2)C(O)C1O (centres undefined) | 36.2 | 9.44 | 31.9 | 42 |  | 34.4 | 38.5 | 39.8 |  |  |  | 32.5 |  |  |  |  |  |  |  | 
OC1=CN=C(c2ccccc2)Oc2ccccc21 | > 100 | > 100 | > 100 | > 100 | > 100 | > 100 | > 100 |  |  |  |  | > 100 |  |  |  |  |  |  |  | 
C#Cc1cccc(NC(=O)/C=C\C(=O)O)c1 | > 100 | > 100 |  | > 100 |  |  | > 100 | > 100 |  |  |  |  |  |  |  |  |  |  |  | 
Nc1nc(-c2ccccc2)c(CC(=O)O)s1 | > 100 | > 100 |  | > 100 | > 100 | > 100 | > 100 | > 100 | > 100 |  |  | > 100 |  |  |  |  |  |  |  | 
